Experimental data: ChEMBL document CHEMBL1649243, “TEM-168, a heretofore laboratory-derived TEM beta-lactamase variant found in an Escherichia coli clinical isolate” (2009)
In brackets after ≈: the same amount, converted by molar mass.

Legend:
Type in all cases: functional
Escherichia coli [1] = assay: Antimicrobial activity against Escherichia coli DH10B transformant harboring blaTEM-168 gene by broth microdilution method
Escherichia coli [2] = assay: Antimicrobial activity against Escherichia coli NO8-1503 harboring blaTEM-168 gene by broth microdilution method
Escherichia coli [3] = assay: Antimicrobial activity against Escherichia coli DH10B transformant harboring blaTEM-168 gene by Etest
Escherichia coli [4] = assay: Antimicrobial activity against Escherichia coli NO8-1503 harboring blaTEM-168 gene by Etest
Escherichia coli [5] = assay: Antimicrobial activity against Escherichia coli DH10B by Etest in presence of clavulanic acid
Escherichia coli [6] = assay: Antimicrobial activity against Escherichia coli DH10B transformant harboring blaTEM-168 gene by Etest in presence of clavulanic acid
Escherichia coli [7] = assay: Antimicrobial activity against Escherichia coli NO8-1503 harboring blaTEM-168 gene by Etest in presence of clavulanic acid
Escherichia coli [8] = assay: Antimicrobial activity against Escherichia coli NO8-1503 harboring blaTEM-168 gene by disk diffusion method
Escherichia coli [9] = assay: Antimicrobial activity against Escherichia coli DH10B transformant harboring blaTEM-168 gene by disk diffusion method in presence of clavulanic acid
Escherichia coli [10] = assay: Antimicrobial activity against Escherichia coli DH10B by disk diffusion method in presence of clavulanic acid
Escherichia coli [11] = assay: Antimicrobial activity against Escherichia coli DH10B by broth microdilution method
Escherichia coli [12] = assay: Antimicrobial activity against Escherichia coli DH10B by Etest
Escherichia coli [13] = assay: Antimicrobial activity against Escherichia coli NO8-1503 harboring blaTEM-168 gene by disk diffusion method in presence of clavulanic acid
Escherichia coli [14] = assay: Antimicrobial activity against Escherichia coli DH10B by disk diffusion method
Escherichia coli [15] = assay: Antimicrobial activity against Escherichia coli NO8-1503 harboring blaTEM-168 gene by broth microdilution method in presence of clavulanic acid
Escherichia coli [16] = assay: Antimicrobial activity against Escherichia coli DH10B by broth microdilution method in presence of clavulanic acid
Escherichia coli [17] = assay: Antimicrobial activity against Escherichia coli DH10B transformant harboring blaTEM-168 gene by disk diffusion method
Escherichia coli [18] = assay: Antimicrobial activity against Escherichia coli DH10B transformant harboring blaTEM-168 gene by broth microdilution method in presence of clavulanic acid
Escherichia coli [19] = assay: Antimicrobial activity against Escherichia coli DH10B transformant harboring blaTEM-168 gene by Etest in presence of Tazobactam
Escherichia coli [20] = assay: Antimicrobial activity against Escherichia coli NO8-1503 harboring blaTEM-168 gene by Etest in presence of Tazobactam
Escherichia coli [21] = assay: Antimicrobial activity against Escherichia coli DH10B by Etest in presence of Tazobactam

Row | SMILES | MIC (Escherichia coli [1]) [µg/mL] | MIC (Escherichia coli [2]) [µg/mL] | MIC (Escherichia coli [3]) [µg/mL] | MIC (Escherichia coli [4]) [µg/mL] | MIC (Escherichia coli [5]) [µg/mL] | MIC (Escherichia coli [6]) [µg/mL] | MIC (Escherichia coli [7]) [µg/mL] | inhibition zone (IZ) (Escherichia coli [8]) [mm] | inhibition zone (IZ) (Escherichia coli [9]) [mm] | inhibition zone (IZ) (Escherichia coli [10]) [mm] | MIC (Escherichia coli [11]) [µg/mL] | MIC (Escherichia coli [12]) [µg/mL] | inhibition zone (IZ) (Escherichia coli [13]) [mm] | inhibition zone (IZ) (Escherichia coli [14]) [mm] | MIC (Escherichia coli [15]) [µg/mL] | MIC (Escherichia coli [16]) [µg/mL] | inhibition zone (IZ) (Escherichia coli [17]) [mm] | also measured
1 | CO/N=C(\C(=O)N[C@@H]1C(=O)N2C(C(=O)[O-])=C(C[N+]3(C)CCCC3)CS[C@H]12)c1csc(N)n1 | 4 (≈ 8.32 µM) | 8 (≈ 16.6 µM) | 2 (≈ 4.16 µM) | 2 (≈ 4.16 µM) | – | – | – | – | – | – | – | – | – | – | – | – | – | –
2 | CC1(C)S[C@@H]2[C@H](NC(=O)[C@H](N)c3ccc(O)cc3)C(=O)N2[C@H]1C(=O)O [AMOXICILLIN] | – | – | – | – | 3 | 64 | 32 | – | – | – | – | – | – | – | – | – | – | –
3 | CO/N=C(\C(=O)N[C@@H]1C(=O)N2C(C(=O)O)=C(COC(C)=O)CS[C@H]12)c1csc(N)n1 [CEFOTAXIME] | – | ≤ 0.25 | 0.25 (≈ 0.549 µM) | 0.25 (≈ 0.549 µM) | 0.094 | 0.094 | 0.094 | 23 | 30 | 33 | ≤ 0.25 | < 0.25 | 24 | 29 | ≤ 0.12 | ≤ 0.12 | 26 | –
4 | CO[C@@]1(NC(=O)Cc2cccs2)C(=O)N2C(C(=O)O)=C(COC(N)=O)CS[C@@H]21 [CEFOXITIN] | – | – | 6 (≈ 14 µM) | 12 (≈ 28.1 µM) | – | – | – | – | – | – | – | 8 (≈ 18.7 µM) | – | – | – | – | – | –
5 | COCC1=C(C(=O)O)N2C(=O)[C@@H](NC(=O)/C(=N\OC)c3csc(N)n3)[C@H]2SC1 [CEFPODOXIME] | 4 (≈ 9.36 µM) | 8 (≈ 18.7 µM) | – | – | – | – | – | 20 | 16 | 21 | 1 (≈ 2.34 µM) | – | 15 | 27 | 0.5 | ≤ 0.125 | 20 | MIC (Escherichia coli [18]): 0.25 µg/mL
6 | CC(C)(O/N=C(\C(=O)N[C@@H]1C(=O)N2C(C(=O)[O-])=C(C[n+]3ccccc3)CS[C@H]12)c1csc(N)n1)C(=O)O [CEFTAZIDIME] | 4 (≈ 7.32 µM) | 4 (≈ 7.32 µM) | 3 (≈ 5.49 µM) | 3 (≈ 5.49 µM) | 0.38 | 1 | 0.75 | 8 | 10 | 18 | ≤ 0.25 | 1 (≈ 1.83 µM) | 11 | 16 | 2 | 0.25 | 8 | MIC (Escherichia coli [18]): 1 µg/mL
7 | CCN1CCN(C(=O)N[C@@H](C(=O)N[C@@H]2C(=O)N3[C@@H]2SC(C)(C)[C@@H]3C(=O)O)c2ccccc2)C(=O)C1=O [PIPERACILLIN] | – | – | – | – | – | – | – | – | – | – | – | – | – | – | – | – | – | MIC (Escherichia coli [19]): > 256 µg/mL; MIC (Escherichia coli [20]): > 256 µg/mL; MIC (Escherichia coli [21]): 1.5 µg/mL
